Assay results published in PubChem BioAssay (NCI).
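Grown in 96-well plates, cells were treated for 48 hours with each compound at five concentrations. Insufficient inhibition: endpoint recorded as highest concentration tested. GI50 is the concentration that inhibits growth by half. TGI: total growth inhibition.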 Where a SMILES comes first, the peptide text is derived from it. [ ]: non-standard residue; d: D form. ξ: configuration not given here. ξ2Thi = NC(Cc1cccs1)C(=O)O; ξR = N=C(N)NCCCC(N)C(=O)O; ξI = CCC(C)C(N)C(=O)O; ξL = CC(C)CC(N)C(=O)O; ξK = NCCCCC(N)C(=O)O; ξT = CC(O)C(N)C(=O)O; ξA = CC(N)C(=O)O

Legend:
Experiment in all cases: NCI-60 cell line screen, 48 h
NCI-H23 lung = test system: NCI-H23 lung
UACC-257 melanoma = test system: UACC-257 melanoma
BT-549 breast = test system: BT-549 breast
NCI-H226 lung = test system: NCI-H226 lung
SW-620 colon = test system: SW-620 colon
HCT-116 colon = test system: HCT-116 colon
LOX IMVI melanoma = test system: LOX IMVI melanoma
TK-10 renal = test system: TK-10 renal
UO-31 renal = test system: UO-31 renal
NCI/ADR-RES ovarian = test system: NCI/ADR-RES ovarian
SK-MEL-28 melanoma = test system: SK-MEL-28 melanoma
MOLT-4 leukemia = test system: MOLT-4 leukemia
MDA-MB-435 = test system: MDA-MB-435
M14 melanoma = test system: M14 melanoma
SK-OV-3 ovarian = test system: SK-OV-3 ovarian
SF-268 CNS = test system: SF-268 CNS
ACHN renal = test system: ACHN renal
HL-60(TB) leukemia = test system: HL-60(TB) leukemia
RXF 393 renal = test system: RXF 393 renal
HCT-15 colon = test system: HCT-15 colon
SF-295 CNS = test system: SF-295 CNS
HCC-2998 colon = test system: HCC-2998 colon
HOP-92 NSCLC = test system: HOP-92 NSCLC
MCF7 breast = test system: MCF7 breast
SK-MEL-2 melanoma = test system: SK-MEL-2 melanoma
SK-MEL-5 melanoma = test system: SK-MEL-5 melanoma
SN12C renal = test system: SN12C renal
COLO 205 colon = test system: COLO 205 colon
RPMI-8226 leukemia = test system: RPMI-8226 leukemia
HS 578T breast = test system: HS 578T breast
HT29 colon = test system: HT29 colon
OVCAR-5 ovarian = test system: OVCAR-5 ovarian
A498 renal = test system: A498 renal
DU-145 prostate = test system: DU-145 prostate
CAKI-1 renal = test system: CAKI-1 renal
IGROV1 ovarian = test system: IGROV1 ovarian
SNB-19 CNS = test system: SNB-19 CNS
NCI-H522 lung = test system: NCI-H522 lung
NCI-H460 lung = test system: NCI-H460 lung
MALME-3M melanoma = test system: MALME-3M melanoma
OVCAR-4 ovarian = test system: OVCAR-4 ovarian
MDA-MB-231 breast = test system: MDA-MB-231 breast
U251 CNS = test system: U251 CNS
OVCAR-8 ovarian = test system: OVCAR-8 ovarian
HOP-62 NSCLC = test system: HOP-62 NSCLC
786-0 renal = test system: 786-0 renal
T-47D breast = test system: T-47D breast
K-562 leukemia = test system: K-562 leukemia
OVCAR-3 ovarian = test system: OVCAR-3 ovarian
EKVX NSCLC = test system: EKVX NSCLC
SNB-75 CNS = test system: SNB-75 CNS
SF-539 CNS = test system: SF-539 CNS
PC-3 prostate = test system: PC-3 prostate
KM12 colon = test system: KM12 colon
UACC-62 melanoma = test system: UACC-62 melanoma

CCC(C)C(NC(=O)C(Cc1cccs1)NC(=O)C(CC(C)C)NC(=O)C(CC(C)C)NC(=O)C(CCCCN)NC(=O)C(CCCN=C(N)N)NC(=O)[C@H](Cc1ccc(O)cc1)NC(=O)C(NC(=O)C(C)NC(=O)C(N)CC(C)C)C(C)O)C(=O)NC(CC(C)C)C(N)=O (stereo partly drawn) (H-[ξL][ξA][ξT]Y[ξR][ξK][ξL][ξL][ξ2Thi][ξI][ξL]-NH2)
TGI (NCI-H23 lung): > 50 µM
TGI (UACC-257 melanoma): > 50 µM
TGI (BT-549 breast): > 50 µM
TGI (NCI-H226 lung): > 50 µM

COc1cc2c3c(n(CCCN)c(=O)c2cc1OC)-c1ccccc1C3=O
GI50 (SW-620 colon): 1890 nM
TGI (SW-620 colon): > 100 µM
GI50 (HCT-116 colon): 10.1 nM
TGI (HCT-116 colon): 172 nM
GI50 (LOX IMVI melanoma): 125 nM
TGI (LOX IMVI melanoma): 1020 nM
GI50 (TK-10 renal): 2140 nM
TGI (TK-10 renal): 6.31 µM
GI50 (NCI-H23 lung): 1250 nM
TGI (NCI-H23 lung): 6.03 µM
GI50 (UO-31 renal): 1800 nM
TGI (UO-31 renal): 13.1 µM
GI50 (NCI/ADR-RES ovarian): 2280 nM
TGI (NCI/ADR-RES ovarian): 9.75 µM
GI50 (SK-MEL-28 melanoma): 9.99 µM
TGI (SK-MEL-28 melanoma): > 46.8 µM
TGI (MOLT-4 leukemia): 7.12 µM
GI50 (MDA-MB-435): 755 nM
TGI (MDA-MB-435): 18.9 µM
GI50 (M14 melanoma): 199 nM
TGI (M14 melanoma): 2280 nM
GI50 (SK-OV-3 ovarian): 5.62 µM
TGI (SK-OV-3 ovarian): 23 µM
GI50 (SF-268 CNS): 1710 nM
TGI (SF-268 CNS): > 21.6 µM
GI50 (ACHN renal): 1140 nM
TGI (ACHN renal): 8.1 µM
GI50 (HL-60(TB) leukemia): 5.09 µM
TGI (HL-60(TB) leukemia): > 100 µM
GI50 (UACC-257 melanoma): 6.3 µM
TGI (UACC-257 melanoma): 27.8 µM
GI50 (RXF 393 renal): 1040 nM
TGI (RXF 393 renal): 2560 nM
GI50 (HCT-15 colon): 1000 nM
GI50 (SF-295 CNS): 70.9 nM
TGI (SF-295 CNS): 5.24 µM
GI50 (HCC-2998 colon): 531 nM
TGI (HCC-2998 colon): 2110 nM
GI50 (HOP-92 NSCLC): 15.2 µM
TGI (HOP-92 NSCLC): 36.7 µM
GI50 (BT-549 breast): 4.85 µM
TGI (BT-549 breast): 13.9 µM
GI50 (MCF7 breast): 316 nM
TGI (MCF7 breast): 2110 nM
GI50 (SK-MEL-2 melanoma): 14.3 µM
TGI (SK-MEL-2 melanoma): 35.5 µM
GI50 (SK-MEL-5 melanoma): 2020 nM
TGI (SK-MEL-5 melanoma): 19.8 µM
GI50 (SN12C renal): 934 nM
TGI (SN12C renal): 5.08 µM
GI50 (COLO 205 colon): 472 nM
TGI (COLO 205 colon): 5.72 µM
GI50 (RPMI-8226 leukemia): 77.2 nM
GI50 (HS 578T breast): 11.1 µM
TGI (HS 578T breast): 46.9 µM
GI50 (HT29 colon): 164 nM
GI50 (OVCAR-5 ovarian): 14.3 µM
TGI (OVCAR-5 ovarian): 29.2 µM
GI50 (A498 renal): 1900 nM
TGI (A498 renal): 9.51 µM
GI50 (DU-145 prostate): 1830 nM
TGI (DU-145 prostate): 4.81 µM
GI50 (CAKI-1 renal): 282 nM
TGI (CAKI-1 renal): 2940 nM
GI50 (IGROV1 ovarian): 1450 nM
TGI (IGROV1 ovarian): > 100 µM
GI50 (SNB-19 CNS): 2950 nM
TGI (SNB-19 CNS): > 42 µM
GI50 (NCI-H522 lung): 339 nM
TGI (NCI-H522 lung): 22.7 µM
GI50 (NCI-H460 lung): 176 nM
GI50 (MALME-3M melanoma): 91.8 nM
TGI (MALME-3M melanoma): 17.5 µM
GI50 (OVCAR-4 ovarian): 2290 nM
TGI (OVCAR-4 ovarian): 12.7 µM
GI50 (MDA-MB-231 breast): 1230 nM
TGI (MDA-MB-231 breast): 3.02 µM
GI50 (U251 CNS): 557 nM
TGI (U251 CNS): 3.43 µM
GI50 (OVCAR-8 ovarian): 455 nM
TGI (OVCAR-8 ovarian): 6.65 µM
GI50 (HOP-62 NSCLC): 351 nM
TGI (HOP-62 NSCLC): 2960 nM
GI50 (786-0 renal): 396 nM
TGI (786-0 renal): 2020 nM
GI50 (T-47D breast): 7.18 µM
TGI (T-47D breast): 39 µM
GI50 (K-562 leukemia): 911 nM
GI50 (NCI-H226 lung): 4.31 µM
TGI (NCI-H226 lung): 16.1 µM
GI50 (OVCAR-3 ovarian): 260 nM
TGI (OVCAR-3 ovarian): 4.2 µM
GI50 (EKVX NSCLC): 3.85 µM
TGI (EKVX NSCLC): 10.3 µM
GI50 (SNB-75 CNS): 4.6 µM
TGI (SNB-75 CNS): 11.6 µM
GI50 (SF-539 CNS): 1250 nM
TGI (SF-539 CNS): 5.23 µM
GI50 (PC-3 prostate): 723 nM
TGI (PC-3 prostate): 2690 nM
GI50 (KM12 colon): 517 nM
TGI (KM12 colon): 2500 nM
GI50 (UACC-62 melanoma): 1730 nM
TGI (UACC-62 melanoma): 16 µM
